Source: patent EP2931723B1, “NEW BICYCLIC COMPOUNDS AND THEIR USE AS ANTIBACTERIAL AGENTS AND -LACTAMASE INHIBITORS” (Fedora Pharmaceuticals Inc., priority 2012, dated 2014)

Key:
Test in all cases: MIC, antibacterial and synergistic activity
Assay type in all cases: cell-based
A. baumanii JMI 2659 = A. baumanii JMI 2659 (Ges-14 (Cpase))
E.coli JMI 4103 = E.coli JMI 4103 (KPC-2, Tem-1, CMY-Type)
E. coli JMI 4080 = tested on: E. coli JMI 4080
E. coli JMI 10767 [1] = conditions: E. coli JMI 10767 (Wt)
Procedure: (§1) In the Tables 10 - 12, compounds herein disclosed were tested in combination with various antibiotics against metallo β-lactamase producing bacteria. Table 3: Synergy of the inhibitor Ex. 1 (4 µg/mL) in combination with antibiotics

E. coli JMI 10768 = E. coli JMI 10768 (CTX-M15 (Weak ESBL))
Procedure: as §1

E. coli JMI 10770 = E. coli JMI 10770 (CTX-M15 (Hyper ESBL))
Procedure: as §1

E. coli JMI 2665 = tested on: E. coli JMI 2665
Procedure: as §1

E. coli JMI 2671 = tested on: E. coli JMI 2671
Method in brief: (§2)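 Synergistic activity: antibiotics tested with inhibitor (4 µg/mL fixed) against strains expressing metallo β-lactamases.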

K. pneumo JMI 2673 [2] = conditions: K. pneumo JMI 2673 (CTX-M14 (ESBL))
Method in brief: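 Compounds were evaluated together with various antibiotics to measure synergistic antibacterial activity. For each combination, the minimum inhibitory concentration of the antibiotic was recorded while the inhibitor was present at a constant 4 µg/mL.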

K. pneumo JMI 2674 = K. pneumo JMI 2674 (CTX-M15 (ESBL))
Method in brief: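 Antibacterial activity was assessed as minimum inhibitory concentrations against a β-lactamase-producing bacterial strain. Each test inhibitor was combined with an antibiotic, with the inhibitor held at a fixed 4 µg/mL, to determine whether it acted synergistically and restored the antibiotic's effect against the resistant organism.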

K. pneumo JMI 2699 = K. pneumo JMI 2699 (VIM-1, CTX-M3)
Method in brief: as §2

K. pneumo JMI 4088 [3] = conditions: K. pneumo JMI 4088 (KPC-3 (Cpase))
Method in brief: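 Minimum inhibitory concentrations were measured for antibiotics given together with the test inhibitor, held at 4 µg/mL, against bacteria that produce β-lactamase. The purpose was to see whether the inhibitor restores or boosts antibacterial activity, that is, synergy with the antibiotic.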

K.pneumo JMI 4109 [4] = conditions: K.pneumo JMI 4109 (SHV-1, SHV-12)
Method in brief: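 Antibacterial synergy was assessed by pairing each inhibitor compound, at a constant concentration of 4 µg/mL, with β-lactam antibiotics. The combinations were run against bacterial strains that produce β-lactamases, and the readout was the minimum inhibitory concentration of the antibiotic in the presence of the inhibitor.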

P. aerug JMI 2686 = P. aerug JMI 2686 (KPC-2 (Cpase))
Method in brief: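 This antibacterial synergy assay measured the minimum inhibitory concentration of antibiotics combined with the disclosed inhibitor compounds. The inhibitor was held at 4 µg/mL throughout. The aim was to see whether the added compound strengthened the antibiotic's action against the tested bacteria.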

E. coli JMI 2692 = E. coli JMI 2692 (NDM-1, TEM-1, CTX-M-15)
Procedure: (§3) In the Tables 10 - 12, compounds herein disclosed were tested in combination with various antibiotics against metallo β-lactamase producing bacteria.

K. pneumo JMI 2693 = K. pneumo JMI 2693 (NDM-1 (Cpase))
Procedure: as §3

K. pneumo JMI 2697 = K. pneumo JMI 2697 (IMP-4 (Cpase))
Procedure: as §3

P. aerug JMI 149 = P. aerug JMI 149 (Bla+++D+)
K.pneumo JMI 4109 [5] = conditions: K.pneumo JMI 4109 (SHV-1, SHV-12); substance alone
K. pneumo JMI 2673 [6] = conditions: K. pneumo JMI 2673 (CTX-M14 (ESBL)); substance alone
K. pneumo JMI 4088 [7] = conditions: K. pneumo JMI 4088 (KPC-3 (Cpase)); substance alone
E. coli JMI 10767 [8] = conditions: E. coli JMI 10767 (Wt); remark: listed apart in the source
[9] = Aztreonam + inhibitor at 4 µg/mL
[10] = Ceftazidime + inhibitor at 4 µg/mL
[11] = Meropenem + inhibitor at 4 µg/mL

O=C(NO[C@H]1CCNC1)[C@@H]1CC[C@@H]2CN1C(=O)N2OS(=O)(=O)O [Ex. 1, (2S,5R)-7-Oxo-N-[(3S)-pyrrolidin-3-yloxy]-6-(sulfooxy)-1,6-diazabicyclo[3.2.1]octane-2-carboxamide]
MIC Aztreonam + inhibitor (A. baumanii JMI 2659; [9]): >4 µg/mL
MIC Ceftazidime + inhibitor (A. baumanii JMI 2659; [10]): >16 µg/mL
MIC Meropenem + inhibitor (A. baumanii JMI 2659; [11]): 2 µg/mL
MIC (A. baumanii JMI 2659; Acinetobacter baumannii, JMI2659, substance alone, read-out: MIC): > 16 µg/mL
MIC Aztreonam + inhibitor (E.coli JMI 4103; [9]): >4 µg/mL
MIC Ceftazidime + inhibitor (E.coli JMI 4103; [10]): 8 µg/mL
MIC Meropenem + inhibitor (E.coli JMI 4103; [11]): ≤.031 µg/mL
MIC (E.coli JMI 4103; Escherichia coli, JMI4103, substance alone): 16 µg/mL
MIC Aztreonam + inhibitor (E. coli JMI 4080; E. coli JMI 4080 (Tem-10), Aztreonam + inhibitor at 4 µg/mL): 1 µg/mL
MIC Ceftazidime + inhibitor (E. coli JMI 4080; E. coli JMI 4080 (Tem-10), Ceftazidime + inhibitor at 4 µg/mL): 1 µg/mL
MIC Meropenem + inhibitor (E. coli JMI 4080; E. coli JMI 4080 (Tem-10), Meropenem + inhibitor at 4 µg/mL): ≤.031 µg/mL
MIC (E. coli JMI 4080; Escherichia coli, JMI4080, E. coli JMI 4080 (Tem-10), substance alone): 8 µg/mL
MIC Aztreonam + inhibitor (E. coli JMI 10767 [1]; [9]): ≤.062 µg/mL
MIC Ceftazidime + inhibitor (E. coli JMI 10767 [1]; [10]): ≤0.25 µg/mL
MIC Aztreonam + inhibitor (E. coli JMI 10768; [9]): ≤.062 µg/mL
MIC Ceftazidime + inhibitor (E. coli JMI 10768; [10]): ≤0.25 µg/mL
MIC (E. coli JMI 10768; Escherichia coli, JMI10768, substance alone): 8 µg/mL
MIC Aztreonam + inhibitor (E. coli JMI 10770; [9]): ≤.062 µg/mL
MIC Ceftazidime + inhibitor (E. coli JMI 10770; [10]): ≤0.25 µg/mL
MIC Meropenem + inhibitor (E. coli JMI 10770; [11]): ≤.031 µg/mL
MIC Aztreonam + inhibitor (E. coli JMI 2665; E. coli JMI 2665 (CMY-2 (Plasmid Cpase)), Aztreonam + inhibitor at 4 µg/mL): ≤.062 µg/mL
MIC Ceftazidime + inhibitor (E. coli JMI 2665; E. coli JMI 2665 (CMY-2 (Plasmid Cpase)), Ceftazidime + inhibitor at 4 µg/mL): ≤0.25 µg/mL
MIC Meropenem + inhibitor (E. coli JMI 2665; E. coli JMI 2665 (CMY-2 (Plasmid Cpase)), Meropenem + inhibitor at 4 µg/mL): ≤.031 µg/mL
MIC (E. coli JMI 2665; Escherichia coli, JMI2665): 4 µg/mL
MIC Aztreonam + inhibitor (E. coli JMI 2671; E. coli JMI 2671 (VIM-19 (Cpase)), Aztreonam + inhibitor at 4 µg/mL): ≤.062 µg/mL
MIC Ceftazidime + inhibitor (E. coli JMI 2671; E. coli JMI 2671 (VIM-19 (Cpase)), Ceftazidime + inhibitor at 4 µg/mL): 2 µg/mL
MIC Meropenem + inhibitor (E. coli JMI 2671; E. coli JMI 2671 (VIM-19 (Cpase)), Meropenem + inhibitor at 4 µg/mL): 2 µg/mL
MIC (E. coli JMI 2671; Escherichia coli, JMI2671, E. coli JMI 2671 (VIM-19 (Cpase)), substance alone): 4 µg/mL
MIC Aztreonam + inhibitor (K. pneumo JMI 2673 [2]; [9]): ≤.062 µg/mL
MIC Ceftazidime + inhibitor (K. pneumo JMI 2673 [2]; [10]): ≤0.25 µg/mL
MIC Meropenem + inhibitor (K. pneumo JMI 2673 [2]; [11]): ≤.031 µg/mL
MIC Aztreonam + inhibitor (K. pneumo JMI 2674; [9]): ≤.062 µg/mL
MIC Ceftazidime + inhibitor (K. pneumo JMI 2674; [10]): ≤0.25 µg/mL
MIC Meropenem + inhibitor (K. pneumo JMI 2674; [11]): 0.062 µg/mL
MIC Aztreonam + inhibitor (K. pneumo JMI 2699; [9]): 0.5 µg/mL
MIC Ceftazidime + inhibitor (K. pneumo JMI 2699; [10]): 16 µg/mL
MIC Meropenem + inhibitor (K. pneumo JMI 2699; [11]): 2 µg/mL
MIC (K. pneumo JMI 2699; substance alone, read-out: MIC): 8 µg/mL
MIC Aztreonam + inhibitor (K. pneumo JMI 4088 [3]; [9]): ≤.062 µg/mL
MIC Ceftazidime + inhibitor (K. pneumo JMI 4088 [3]; [10]): ≤0.25 µg/mL
MIC Meropenem + inhibitor (K. pneumo JMI 4088 [3]; [11]): 0.062 µg/mL
MIC Aztreonam + inhibitor (K.pneumo JMI 4109 [4]; [9]): ≤.062 µg/mL
MIC Ceftazidime + inhibitor (K.pneumo JMI 4109 [4]; [10]): ≤0.25 µg/mL
MIC Meropenem + inhibitor (K.pneumo JMI 4109 [4]; [11]): ≤.031 µg/mL
MIC Aztreonam + inhibitor (P. aerug JMI 2686; [9]): >4 µg/mL
MIC Ceftazidime + inhibitor (P. aerug JMI 2686; [10]): 16 µg/mL
MIC Meropenem + inhibitor (P. aerug JMI 2686; [11]): >2 µg/mL
MIC Aztreonam + inhibitor (E. coli JMI 2692; [9]): 0.25 µg/mL
MIC Ceftazidime + inhibitor (E. coli JMI 2692; [10]): ≤0.25 µg/mL
MIC Meropenem + inhibitor (E. coli JMI 2692; [11]): ≤.031 µg/mL
MIC (E. coli JMI 2692; Escherichia coli, JMI2692, substance alone, read-out: MIC): 4 µg/mL
MIC Aztreonam + inhibitor (K. pneumo JMI 2693; [9]): 0.125 µg/mL
MIC Ceftazidime + inhibitor (K. pneumo JMI 2693; [10]): ≤0.25 µg/mL
MIC Meropenem + inhibitor (K. pneumo JMI 2693; [11]): 0.062 µg/mL
MIC (K. pneumo JMI 2693; substance alone): > 16 µg/mL
MIC Aztreonam + inhibitor (K. pneumo JMI 2697; [9]): 0.25 µg/mL
MIC Ceftazidime + inhibitor (K. pneumo JMI 2697; [10]): 16 µg/mL
MIC Meropenem + inhibitor (K. pneumo JMI 2697; [11]): >2 µg/mL
MIC (K. pneumo JMI 2697; substance alone): 16 µg/mL
MIC Aztreonam + inhibitor (P. aerug JMI 149; [9]): >4 µg/mL
MIC Ceftazidime + inhibitor (P. aerug JMI 149; [10]): 4 µg/mL
MIC Meropenem + inhibitor (P. aerug JMI 149; [11]): 0.5 µg/mL
MIC (P. aerug JMI 149; substance alone, read-out: MIC): > 16 µg/mL
MIC (K.pneumo JMI 4109 [5]): 4 µg/mL
MIC (K. pneumo JMI 2673 [6]): > 16 µg/mL
MIC (K. pneumo JMI 4088 [7]): 4 µg/mL
MIC Meropenem + inhibitor (E. coli JMI 10767 [8]; [11]): ≤.031 µg/mL
MIC (E. coli JMI 10767 [8]; Escherichia coli, JMI10767, substance alone): 8 µg/mL
